Drawing on US6544990B2, “Substituted quinolinecarboxamides as antiviral agents” (Pharmacia & Upjohn Company, priority 2001, dated 2003), this text covers IC50 and melting point for eleven compounds.

In data set [1] the target is T1, HCMV polymerase (Human cytomegalovirus, UniProt P08546).
T1 construct: made in house; host or cells: recombinant baculovirus-infected SF-9 cells
As to the kind of experiment: HCMV polymerase scintillation proximity assay (SPA). The format is biochemical. The following applies: CMV polymerase. Here is the method: The HCMV polymerase assay is performed using a scintillation proximity assay (SPA) as described in several references, such as N. D. Cook, et al., Pharmaceutical Manufacturing International, pages 49-53 (1992); K. Takeuchi, Laboratory Practice, September issue (1992); U.S. Pat. No. 4,568,649 (1986); which are incorporated by reference herein. Reactions are performed in 96-well plates. The assay is conducted in 100 μl volume with 5.4 mM HEPES (pH 7.5), 11.7 mM KCl, 4.5 mM MgCl2, 0.36 mg/ml BSA, and 90 nM 3H-dTTP. Assays are run with and without CHAPS, (3-[(3-Cholamidopropyl)-dimethylammonio]-1-propane-sulfonate) at a final concentration of 2 mM. HCMV polymerase is diluted in enzyme dilution buffer containing 50% glycerol, 250 mM NaCl, 10 mM HEPES (pH 7.5), 100 μg/ml BSA, and 0.01% sodium azide. The HCMV polymerase, which is expressed in recombinant baculovirus-infected SF-9 cells and purified according to literature procedures, is added at 10% (or 10 μl ) of the final reaction volume, i.e., 100 μl. Compounds are diluted in 50% DMSO and 10 μl are added to each well. Control wells contain an equivalent concentration of DMSO. Unless noted otherwise, reactions are initiated via the addition of 6 nM biotinylated poly(dA)-oligo(dT) template/primer to reaction mixtures containing the enzyme, substrate, and compounds of interest. Plates are incubated in a 25 C or 37 C H20 bath and terminated via the addition of 40 μl/reaction of 0.5 M EDTA (pH 8) per well. Reactions are terminated within the time-frame during which substrate incorporation is linear and varied depending upon the enzyme and conditions used, i.e., 30 min. for HCMV polymerase. Ten μl of streptavidin-SPA beads (20 mg/mil in PBS/10% glycerol) are added following termination of the reaction. Plates are incubated 10 min. at 37 C, then equilibrated to room temperature, and counted on a Packard Topcount. Linear regressions are performed and IC50's are calculated using computer software.
A modified version of the above HCMV polymerase assay is performed as described above, but with the following changes: Compounds are diluted in 100% DMSO until final dilution into assay buffer. In the previous assay, compounds are diluted in 50% DMSO. 4.5 mM dithiotherotol (DTT) is added to the polymerase buffer.

For data set [2], the target named is HSV polymerase (Human herpesvirus 1, UniProt P04293). As to the kind of experiment: Polymerase scintillation proximity assay (SPA), HSV. It counts as biochemical. Background: Scintillation proximity formats need no separation of bound from free tracer.
Chain of HSV polymerase (P04293 whole entry): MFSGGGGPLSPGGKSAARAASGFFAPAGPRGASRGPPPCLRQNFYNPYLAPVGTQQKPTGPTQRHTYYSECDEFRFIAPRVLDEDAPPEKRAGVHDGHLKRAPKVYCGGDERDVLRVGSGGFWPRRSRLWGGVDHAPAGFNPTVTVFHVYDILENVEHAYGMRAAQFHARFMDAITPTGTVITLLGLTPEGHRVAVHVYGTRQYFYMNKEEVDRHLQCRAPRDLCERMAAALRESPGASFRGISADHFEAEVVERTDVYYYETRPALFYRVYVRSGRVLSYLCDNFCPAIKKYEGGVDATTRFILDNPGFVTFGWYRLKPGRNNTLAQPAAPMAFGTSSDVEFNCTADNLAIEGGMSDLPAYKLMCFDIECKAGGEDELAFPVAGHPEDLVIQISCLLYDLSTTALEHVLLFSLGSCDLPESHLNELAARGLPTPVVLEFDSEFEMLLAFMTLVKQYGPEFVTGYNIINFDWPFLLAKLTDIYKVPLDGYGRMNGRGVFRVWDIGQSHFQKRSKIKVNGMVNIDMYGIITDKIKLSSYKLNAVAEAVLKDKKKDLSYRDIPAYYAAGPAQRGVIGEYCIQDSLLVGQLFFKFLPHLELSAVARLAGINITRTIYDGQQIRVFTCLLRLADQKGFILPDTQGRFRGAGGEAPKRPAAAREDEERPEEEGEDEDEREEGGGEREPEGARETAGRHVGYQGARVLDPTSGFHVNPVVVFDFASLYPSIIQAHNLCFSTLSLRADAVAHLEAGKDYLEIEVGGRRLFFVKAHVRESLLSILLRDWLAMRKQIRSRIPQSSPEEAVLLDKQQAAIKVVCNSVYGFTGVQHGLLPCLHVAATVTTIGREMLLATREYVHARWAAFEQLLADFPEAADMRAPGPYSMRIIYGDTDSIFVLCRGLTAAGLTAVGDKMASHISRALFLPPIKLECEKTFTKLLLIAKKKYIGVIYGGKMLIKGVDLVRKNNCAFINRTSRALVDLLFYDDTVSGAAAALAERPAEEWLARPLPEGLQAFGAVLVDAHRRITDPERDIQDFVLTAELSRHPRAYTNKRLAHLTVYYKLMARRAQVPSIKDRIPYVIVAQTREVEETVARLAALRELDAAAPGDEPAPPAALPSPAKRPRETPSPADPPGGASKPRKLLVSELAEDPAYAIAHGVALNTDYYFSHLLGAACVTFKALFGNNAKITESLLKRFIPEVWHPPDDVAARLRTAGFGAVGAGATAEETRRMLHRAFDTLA
Data set [3] concerns the target VZV polymerase (Varicella-zoster virus, UniProt P09252). The data set is described as follows: Polymerase scintillation proximity assay (SPA), VZV. The format is biochemical.

T1 sequence (P08546 whole entry): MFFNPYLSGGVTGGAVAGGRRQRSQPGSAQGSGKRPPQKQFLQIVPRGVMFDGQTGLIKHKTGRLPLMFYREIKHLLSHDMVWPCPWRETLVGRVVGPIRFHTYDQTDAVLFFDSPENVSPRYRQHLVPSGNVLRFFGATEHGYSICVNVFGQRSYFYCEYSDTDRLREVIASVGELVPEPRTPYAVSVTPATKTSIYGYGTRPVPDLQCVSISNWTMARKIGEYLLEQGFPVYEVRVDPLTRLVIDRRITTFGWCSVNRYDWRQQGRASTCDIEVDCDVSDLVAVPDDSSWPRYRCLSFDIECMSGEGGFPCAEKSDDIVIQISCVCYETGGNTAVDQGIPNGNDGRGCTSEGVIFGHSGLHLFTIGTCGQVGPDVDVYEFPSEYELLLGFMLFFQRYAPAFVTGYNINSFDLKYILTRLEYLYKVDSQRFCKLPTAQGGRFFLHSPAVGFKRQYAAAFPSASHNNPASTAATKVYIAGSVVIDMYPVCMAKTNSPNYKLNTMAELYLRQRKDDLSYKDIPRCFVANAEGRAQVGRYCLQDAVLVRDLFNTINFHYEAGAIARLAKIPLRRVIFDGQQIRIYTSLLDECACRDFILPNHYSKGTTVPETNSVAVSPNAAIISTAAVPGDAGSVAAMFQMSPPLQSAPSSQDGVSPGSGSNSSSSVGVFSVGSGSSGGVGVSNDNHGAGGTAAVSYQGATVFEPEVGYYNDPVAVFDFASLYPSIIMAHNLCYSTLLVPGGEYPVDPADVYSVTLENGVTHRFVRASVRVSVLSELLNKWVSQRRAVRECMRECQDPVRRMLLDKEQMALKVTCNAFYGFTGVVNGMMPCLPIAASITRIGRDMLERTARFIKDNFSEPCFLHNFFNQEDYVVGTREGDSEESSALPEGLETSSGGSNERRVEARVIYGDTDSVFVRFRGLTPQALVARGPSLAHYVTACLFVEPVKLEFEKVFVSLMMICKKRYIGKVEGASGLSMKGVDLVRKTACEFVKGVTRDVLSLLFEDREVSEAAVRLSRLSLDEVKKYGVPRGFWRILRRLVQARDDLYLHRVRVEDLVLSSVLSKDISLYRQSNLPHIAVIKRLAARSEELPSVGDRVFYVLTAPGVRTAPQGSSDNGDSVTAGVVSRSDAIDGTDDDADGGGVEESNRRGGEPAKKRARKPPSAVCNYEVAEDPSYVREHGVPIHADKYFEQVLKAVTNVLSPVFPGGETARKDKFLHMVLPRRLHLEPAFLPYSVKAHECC
Chain of VZV polymerase (P09252 whole entry): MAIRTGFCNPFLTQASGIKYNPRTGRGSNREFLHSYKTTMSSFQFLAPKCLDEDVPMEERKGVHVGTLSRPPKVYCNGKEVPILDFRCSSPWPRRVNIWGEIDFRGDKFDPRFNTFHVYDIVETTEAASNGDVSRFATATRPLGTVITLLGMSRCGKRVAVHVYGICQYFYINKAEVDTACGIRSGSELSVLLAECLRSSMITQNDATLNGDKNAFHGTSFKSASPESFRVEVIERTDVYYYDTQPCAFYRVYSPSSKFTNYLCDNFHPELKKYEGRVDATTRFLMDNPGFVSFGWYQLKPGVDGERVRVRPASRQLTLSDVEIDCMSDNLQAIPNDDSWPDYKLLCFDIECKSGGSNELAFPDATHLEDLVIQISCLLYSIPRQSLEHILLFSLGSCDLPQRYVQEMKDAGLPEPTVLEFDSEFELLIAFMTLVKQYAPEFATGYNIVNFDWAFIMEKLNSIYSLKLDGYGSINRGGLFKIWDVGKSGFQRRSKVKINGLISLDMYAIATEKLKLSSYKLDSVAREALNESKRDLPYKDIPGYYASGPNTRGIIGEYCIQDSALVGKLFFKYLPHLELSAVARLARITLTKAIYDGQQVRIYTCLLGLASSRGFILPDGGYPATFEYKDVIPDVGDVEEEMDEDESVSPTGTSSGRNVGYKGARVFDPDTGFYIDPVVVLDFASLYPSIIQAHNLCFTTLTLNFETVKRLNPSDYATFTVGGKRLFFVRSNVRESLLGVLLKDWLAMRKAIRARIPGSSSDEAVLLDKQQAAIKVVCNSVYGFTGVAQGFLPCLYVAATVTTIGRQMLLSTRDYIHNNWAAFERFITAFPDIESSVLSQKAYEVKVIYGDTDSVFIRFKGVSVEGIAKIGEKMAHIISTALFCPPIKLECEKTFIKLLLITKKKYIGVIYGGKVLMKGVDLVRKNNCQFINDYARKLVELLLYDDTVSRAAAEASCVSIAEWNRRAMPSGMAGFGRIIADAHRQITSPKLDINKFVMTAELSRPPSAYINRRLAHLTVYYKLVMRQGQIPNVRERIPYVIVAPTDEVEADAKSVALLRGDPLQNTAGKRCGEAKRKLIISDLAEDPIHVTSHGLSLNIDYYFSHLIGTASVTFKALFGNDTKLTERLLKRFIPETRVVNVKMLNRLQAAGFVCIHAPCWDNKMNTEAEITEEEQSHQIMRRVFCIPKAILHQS

As usually defined, the IC50 is the point on the concentration scale where inhibition reaches its midpoint. A higher IC50 goes with weaker potency in that assay. In general, melting point refers to the temperature of the solid-liquid transition. `Cn1cc(C(=O)NCc2ccc(Cl)cc2)c(=O)c2cc(CN3CCOCC3)cc(C#CCO)c21` [Example 4, N-(4-chlorobenzyl)-8-(3-hydroxy-1-propynyl)-1-methyl-6-(4-morpholinylmethyl)-4-oxo-1,4-dihydro-3-quinolinecarboxamide] came in with a melting point of 180 to 183 °C. The compound further returned a half-inhibitory concentration (IC50) in data set [1] of 0.83 µM. For the same compound, inhibition in data set [2] was half-maximal at 0.83 µM (IC50). In addition, in data set [3], the 50% inhibitory concentration (IC50) is 0.36 µM.

Consider `Cn1cc(C(=O)NCc2ccc(Cl)cc2)c(=O)c2cc(CN3CCOCC3)cc(C#CCCO)c21` [Example 6, N-(4-chlorobenzyl)-8-(4-hydroxy-1-butynyl)-1-methyl-6-(4-morpholinylmethyl)-4-oxo-1,4-dihydro-3-quinolinecarboxamide], for which the melting point is 168 to 170 °C. The IC50 in data set [1] was found to be 0.8 µM. This compound also had a half-maximal inhibitory concentration (IC50) in data set [2] of 0.82 µM. In data set [3], the IC50 amounted to 0.36 µM.

The compound `C[C@H](O)C#Cc1cc(CN2CCOCC2)cc2c(=O)c(C(=O)NCc3ccc(Cl)cc3)cn(C)c12` [Example 7, N-(4-chlorobenzyl)-8-[(3S)-3-hydroxy-1-butynyl]-1-methyl-6-(4-morpholinylmethyl)-4-oxo-1,4-dihydro-3-quinolinecarboxamide] showed a melting point of 158 to 161 °C. In data set [1], this compound yielded a half-maximal inhibitory concentration (IC50) of 0.76 µM. In addition, in data set [2], half-maximal inhibition (IC50) required 0.45 µM. In data set [3], this compound showed an IC50 of 0.18 µM.

In the case of `C[C@@H](O)C#Cc1cc(CN2CCOCC2)cc2c(=O)c(C(=O)NCc3ccc(Cl)cc3)cn(C)c12` [Example 8, N-(4-chlorobenzyl)-8-[(3R)-3-hydroxy-1-butynyl]-1-methyl-6-(4-morpholinylmethyl)-4-oxo-1,4-dihydro-3-quinolinecarboxamide], the melting point was in the range of 147 to 150 °C. For the same compound, in data set [1], the IC50 is 0.87 µM. The same compound registered a half-maximal inhibitory concentration (IC50) in data set [2] of 1 µM. The compound further registered a half-maximal inhibitory concentration (IC50) in data set [3] of 0.48 µM.

`Cn1cc(C(=O)NCc2ccc(Cl)cc2)c(=O)c2cc(CN3CCOCC3)cc(C#CCCCO)c21` [Example 10, N-(4-chlorobenzyl)-8-(5-hydroxy-1-pentynyl)-1-methyl-6-(4-morpholinylmethyl)-4-oxo-1,4-dihydro-3-quinolinecarboxamide] displayed a melting point of 179 to 182 °C. In data set [1], this compound came in with an IC50 of 0.48 µM. Besides, the IC50 in data set [2] stood at 0.41 µM. This compound showed a concentration for half-maximal inhibition (IC50) in data set [3] of 0.16 µM.

Compound `Cn1cc(C(=O)NCc2ccc(Cl)cc2)c(=O)c2cc(CN3CCOCC3)cc(C#CCN3CCS(=O)(=O)CC3)c21` [Example 11, N-(4-chlorobenzyl)-8-[3-(1,1-dioxido-4-thiomorpholinyl)-1-propynyl]-1-methyl-6-(4-morpholinylmethyl)-4-oxo-1,4-dihydro-3-quinolinecarboxamide] registered a melting point of 220 to 222 °C. The compound further displayed an IC50 in data set [1] of 0.36 µM. The compound also displayed a 50% inhibitory concentration (IC50) in data set [2] of 0.28 µM. In data set [3], this compound had an IC50 of 0.18 µM.

Turning to `Cn1cc(C(=O)NCc2ccc(Cl)cc2)c(=O)c2cc(CN3CCOCC3)cc(C#CCn3cnc(Cl)c3Cl)c21` [Example 13, N-(4-chlorobenzyl)-8-[3-(4,5-dichloro-1H-imidazol-1-yl)prop-1-ynyl]-1-methyl-6-(morpholin-4-ylmethyl)-4-oxo-1,4-dihydroquinoline-3-carboxamide], the melting point is 178 to 181 °C. This compound also showed an IC50 in data set [1] of 0.5 µM. The compound also registered a half-maximal inhibitory concentration (IC50) in data set [2] of 0.49 µM. For the same compound, the IC50 in data set [3] is 0.25 µM.

The compound `Cn1cc(C(=O)NCc2ccc(Cl)cc2)c(=O)c2cc(CN3CCOCC3)cc(C#Cc3ccccn3)c21` [Example 15, N-(4-chlorobenzyl)-1-methyl-6-(morpholin-4-ylmethyl)-4-oxo-8-(pyridin-2-ylethynyl)-1,4-dihydroquinoline-3-carboxamide] displayed a melting point of 234 to 236 °C. The compound further came in with an IC50 in data set [1] of 0.32 µM. The compound also yielded an IC50 in data set [2] of 0.26 µM. This compound also had an IC50 in data set [3] of 0.14 µM.

Turning to `Cn1cc(C(=O)NCc2ccc(Cl)cc2)c(=O)c2cc(CN3CCOCC3)cc(C#Cc3cccnc3)c21` [Example 16, N-(4-chlorobenzyl)-1-methyl-6-(morpholin-4-ylmethyl)-4-oxo-8-(pyridin-3-ylethynyl)-1,4-dihydroquinoline-3-carboxamide], the melting point was 195 to 197 °C. Also, half-maximal inhibition in data set [1] (IC50) was put at 0.47 µM. Moreover, the half-inhibitory concentration (IC50) in data set [2] is 0.28 µM. For the same compound, the IC50 in data set [3] was found to be 0.15 µM.

In turn, `Cn1cc(C(=O)NCc2ccc(Cl)cc2)c(=O)c2cc(CN3CCOCC3)cc(C#Cc3ccncc3)c21` [Example 17, N-(4-chlorobenzyl)-1-methyl-6-(morpholin-4-ylmethyl)-4-oxo-8-(pyridin-4-ylethynyl)-1,4-dihydroquinoline-3-carboxamide] returned a melting point of 200 to 202 °C. The compound further gave an IC50 in data set [1] of 0.42 µM. This compound came in with a half-inhibitory concentration (IC50) in data set [2] of 0.21 µM. In data set [3], this compound had a half-maximal inhibitory concentration (IC50) of 0.11 µM.

On to `Cn1cc(C(=O)NCc2ccc(Cl)cc2)c(=O)c2cc(CN3CCOCC3)cc(C#CCn3ccnc3)c21` [Example 23, N-(4-chlorobenzyl)-8-[3-(1 H-imidazol-1-yl)prop-1-ynyl]-1-methyl-6-(morpholin-4-ylmethyl)-4-oxo-1,4-dihydroquinoline-3-carboxamide], for which the melting point was in the range of 178 to 180 °C. This compound also registered an IC50 in data set [1] of 0.33 µM. For the same compound, the midpoint of inhibition in data set [2], the IC50, lay at 0.22 µM. The compound also came in with a half-inhibitory concentration (IC50) in data set [3] of 0.1 µM.
